Assay [1] relates to ppMlc (T18/S19) levels in A7R5 cells. The assay is described as follows: A7R5 in-cell ELISA (pMLC). The following applies: Rattus norvegicus, A7R5, A7R5 cells. Format: cell-based, Rat. In outline:
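Cellular IC50 came from a nonlinear regression fit of ppMlc (T18/S19) signal, read by colorimetric in-cell ELISA on fixed cells. Rat A7R5 aortic smooth muscle cells had been exposed for 90 min to compounds in 9-point 2-fold serial dilution, 24 h after seeding.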

The test system of assay [2] is Bleomycin induced lung fibrosis in mice. Nature of the assay: Therapeutic bleomycin induced lung fibrosis model. Format: in vivo. From the text: FIG. 10a. ROCK inhibitor is therapeutically active in a mouse model of pulmonary fibrosis. Representative images of lung sections stained with Masson's trichrome to visualized fibrosis in the lungs of mice following therapeutic treatment with ROCK inhibitor in the bleomycin-induced lung injury model.
FIG. 10b. Quantitation of the decrease in the fibrosis index in the histopathological analysis of the images from ROCK inhibitor and vehicle treated mice in the bleomycin-induced lung injury model.
FIG. 10c. ROCK target engagement analysis in the lung tissue from the bleomycin-induced pulmonary fibrosis model.
Therapeutic Efficacy of Compounds in Bleomycin Induced Lung Fibrosis in Mice
Male C57B/L6 mice were housed for acclimation for no less than 7 days. After acclimation period, animals were randomly assigned to treatment groups. On day 0, mice were anesthetized with 5% isoflurane by inhalation for 10-15 mins and then suspended by their front teeth on a wire attached to a fixed animal operating plate. 50 μL of saline or bleomycin solution was administered via intratracheal instillation. […]
The activity of ROCK inhibitors in attenuating pulmonary fibrosis in a therapeutic dosing setting was assessed in a bleomycin-induced model, following intratracheal bleomycin installation to induce lung tissue damage and consequent fibrosis of the lung. […]
The improvement in the overall lung fibrosis was quantitated for each animal in the control and treatment groups. […]
In addition to the determination of the therapeutic activity of ROCK inhibition in the pulmonary fibrosis model, target engagement and the extent of ROCK inhibition in the lung of drug treated animals were also determined. Protein extracts were prepared from the snap frozen lung samples and separated on SDS-PAGE and analyzed by Western blotting. ROCK kinase direct target, phosphorylated myosin-binding subunit of myosin phosphatase (MYPT, pT853) and a ROCK pathway regulated protein CCN1 expression levels were detected. […] Western blot results were quantitated by the Image J densitometry program. […]

Where [3] appears, read: bleomycin treated mouse lungs, western blot.

Consider `Clc1cnc(N2C3CCC2CNC3)nc1Nc1ccc2[nH]ncc2c1` [Example 192, N-(2-(3,8-diazabicyclo[3.2.1]octan-8-yl)-5-chloropyrimidin-4-yl)-1H-indazol-5-amine], for which the inhibition at 1 µM in assay [1] (1 μM compound, read-out: pMLC % inh A7R5 @ [conc]) was found to be 53.5%. Further, the IC50 in assay [1] (ppMlc (T18/S19)) came to 98 nM. Besides, in assay [2] (setting [3]), the “CCN1 total protein levels in lung” value is “reduction” and the “phosphorylated MYPT (pT853) levels in lung” value was “reduction”. In addition, the “collagen amounts in the lungs” value in assay [2] (mice, therapeutic dosing from day 7, Masson's trichrome-stained sections) is “significantly lower”.
